Results from patent publication US9040545B2, “Heterocyclyl pyrazolopyrimidine analogues as selective JAK inhibitors” (Cellzome Limited, priority 2010, dated 2015).
pIC50: −log10 of the molar value.

Biological target: T1, JAK3 (Homo sapiens, UniProt P52333)
T1 construct: endogenous in cells; host or cells: mixed Molt4/Ramos lysate (1:2)
T1 sequence (P52333 1-1124): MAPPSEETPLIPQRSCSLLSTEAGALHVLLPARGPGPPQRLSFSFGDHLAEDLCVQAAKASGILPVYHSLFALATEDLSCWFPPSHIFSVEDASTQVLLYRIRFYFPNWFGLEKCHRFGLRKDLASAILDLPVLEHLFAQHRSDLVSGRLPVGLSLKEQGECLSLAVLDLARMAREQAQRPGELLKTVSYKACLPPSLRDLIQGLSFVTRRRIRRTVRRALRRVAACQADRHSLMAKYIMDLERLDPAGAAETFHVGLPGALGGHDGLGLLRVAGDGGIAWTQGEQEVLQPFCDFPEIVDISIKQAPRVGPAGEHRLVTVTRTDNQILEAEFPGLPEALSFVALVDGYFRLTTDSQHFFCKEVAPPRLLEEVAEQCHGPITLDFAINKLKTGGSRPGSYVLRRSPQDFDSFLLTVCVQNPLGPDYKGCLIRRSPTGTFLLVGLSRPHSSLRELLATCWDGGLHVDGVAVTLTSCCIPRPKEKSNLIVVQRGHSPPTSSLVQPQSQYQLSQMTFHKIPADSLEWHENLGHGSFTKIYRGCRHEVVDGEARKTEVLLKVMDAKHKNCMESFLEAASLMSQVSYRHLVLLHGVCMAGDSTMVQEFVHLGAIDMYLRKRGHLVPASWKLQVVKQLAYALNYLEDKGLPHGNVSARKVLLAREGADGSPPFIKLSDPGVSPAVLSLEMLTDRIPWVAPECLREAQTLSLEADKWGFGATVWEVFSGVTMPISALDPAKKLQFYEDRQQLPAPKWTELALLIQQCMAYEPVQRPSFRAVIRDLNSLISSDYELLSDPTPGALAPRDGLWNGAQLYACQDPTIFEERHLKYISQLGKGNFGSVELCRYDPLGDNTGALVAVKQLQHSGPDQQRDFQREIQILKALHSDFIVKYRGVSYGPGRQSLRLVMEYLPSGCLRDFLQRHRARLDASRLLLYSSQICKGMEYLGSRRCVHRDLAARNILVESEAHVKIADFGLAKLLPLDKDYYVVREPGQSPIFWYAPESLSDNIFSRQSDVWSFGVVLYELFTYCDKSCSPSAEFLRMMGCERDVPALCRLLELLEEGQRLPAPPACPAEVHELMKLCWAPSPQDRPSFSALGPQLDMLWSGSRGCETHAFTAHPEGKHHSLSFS
Assay: Kinobeads assay, JAK3
Type: binding
Details: mixed Molt4/Ramos lysate, read-out: Inhibition values (IC50) JAK3
Summary of the method: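 IC50 values come from dose-response curves of JAK2/JAK3 captured on immobilized aminopyrido-pyrimidine beads, quantified by antibody dot blot with infrared read-out. Compounds (1:3 series, 9 steps, from 5 mM DMSO stock) competed for 3 h in the cold with mixed Molt4/Ramos lysate (1:2, 10 mg/mL protein).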

pIC50 | Structure (SMILES)
> 7.00 | CN(C)CC(O)Cn1cc(Nc2ncc3cnn(Cc4cccc(N5CCOCC5)c4)c3n2)cn1 (centres unmarked) [Example 33, 1-(Dimethylamino)-3-(4-((1-(3-morpholinobenzyl)-1H-pyrazolo[3,4-d]pyrimidin-6-yl)amino)-1H-pyrazol-1-yl)propan-2-ol]
> 7.00 | Cn1cc(-c2cccc(Cn3ncc4cnc(Nc5cnn(CCO)c5)nc43)c2F)cn1 [Example 124, 2-(4-((1-(2-fluoro-3-(1-methyl-1H-pyrazol-4-yl)benzyl)-1H-pyrazolo[3,4-d]pyrimidin-6-yl)amino)-1H-pyrazol-1-yl)ethanol]
> 7.00 | Cn1cc(Nc2ncc3cnn(Cc4cc(F)cc(-c5cnn(C)c5)c4)c3n2)cn1 [Example 125, 1-(3-fluoro-5-(1-methyl-1H-pyrazol-4-yl)benzyl)-N-(1-methyl-1H-pyrazol-4-yl)-1H-pyrazolo[3,4-d]pyrimidin-6-amine]
> 7.00 | Cn1cc(Nc2ncc3cnn(Cc4cccc(N5CC6(COC6)C5)c4F)c3n2)cn1 [Example 91, 1-(2-fluoro-3-(2-oxa-6-azaspiro[3.3]heptan-6-yl)benzyl)-N-(1-methyl-1H-pyrazol-4-yl)-1H-pyrazolo[3,4-d]pyrimidin-6-amine]
> 7.00 | Cn1cc(Nc2ncc3cnn(Cc4cccc(N5CCOCC5)n4)c3n2)cn1 [Example 3, N-(1-Methyl-1H-pyrazol-4-yl)-1-((6-morpholinopyridin-2-yl)methyl)-1H-pyrazolo[3,4-d]pyrimidin-6-amine]
> 7.00 | CC(CN(C)C)Cn1cc(Nc2ncc3cnn(Cc4cccc(N5CCOCC5)c4)c3n2)cn1 (centres unmarked) [Example 32, N-(1-(3-(Dimethylamino)-2-methylpropyl)-1H-pyrazol-4-yl)-1-(3-morpholinobenzyl)-1H-pyrazolo[3,4-d]pyrimidin-6-amine]
> 7.00 | Cn1cc(Nc2ncc3cnn(Cc4cccc(N5CCC(=O)CC5)c4)c3n2)cn1 [Example 108, 1-(3-((6-((1-methyl-1H-pyrazol-4-yl)amino)-1H-pyrazolo[3,4-d]pyrimidin-1-yl)methyl)phenyl)piperidin-4-one]
6.00 to 7.00 | Cn1cc(Nc2ncc3cnn(Cc4cccc(N5CCCCC5)c4)c3n2)cn1 [Example 8, N-(1-Methyl-1H-pyrazol-4-yl)-1-(3-(piperidin-1-yl)benzyl)-1H-pyrazolo[3,4-d]pyrimidin-6-amine]
> 7.00 | O=C1COCCN1c1cc(F)cc(Cn2ncc3cnc(Nc4cnn(CCS(=O)(=O)NC5CC5)c4)nc32)c1 [Example 106, N-cyclopropyl-2-(4-((1-(3-fluoro-5-(3-oxomorpholino)benzyl)-1H-pyrazolo[3,4-d]pyrimidin-6-yl)amino)-1H-pyrazol-1-yl)ethanesulfonamide]
> 7.00 | Cn1cc(Nc2ncc3cnn(Cc4c(F)ccc(N5CCOCC5)c4F)c3n2)cn1 [Example 38, 1-(2,6-Difluoro-3-morpholinobenzyl)-N-(1-methyl-1H-pyrazol-4-yl)-1H-pyrazolo[3,4-d]pyrimidin-6-amine]
> 7.00 | CN(C)C(=O)CCn1cc(Nc2ncc3cnn(Cc4cccc(N5CCOCC5)c4)c3n2)cn1 [Example 16, N,N-Dimethyl-3-(4-((1-(3-morpholinobenzyl)-1H-pyrazolo[3,4-d]pyrimidin-6-yl)amino)-1H-pyrazol-1-yl)propanamide]
6.00 to 7.00 | CC(C)n1cc(-c2cccc(Cn3ncc4cnc(Nc5cnn(C)c5)nc43)c2)cn1 [Example 117, 1-(3-(1-isopropyl-1H-pyrazol-4-yl)benzyl)-N-(1-methyl-1H-pyrazol-4-yl)-1H-pyrazolo[3,4-d]pyrimidin-6-amine]

The remaining lines, values behind:

Structure (SMILES) | pIC50
C[C@H]1COCCN1c1cccc(Cn2ncc3cnc(Nc4cnn(C)c4)nc32)c1 [Example 112, (S)-N-(1-methyl-1H-pyrazol-4-yl)-1-(3-(3-methylmorpholino)benzyl)-1H-pyrazolo[3,4-d]pyrimidin-6-amine] | > 7.00
OCCCn1cc(Nc2ncc3cnn(Cc4cccc(N5CCOCC5)c4)c3n2)cn1 [Example 18, 3-(4-((1-(3-Morpholinobenzyl)-1H-pyrazolo[3,4-d]pyrimidin-6-yl)amino)-1H-pyrazol-1-yl)propan-1-ol] | > 7.00
Cn1cc(Nc2ncc3cnn(Cc4cccc(-c5cnn(C)c5)c4F)c3n2)cn1 [Example 123, 1-(2-fluoro-3-(1-methyl-1H-pyrazol-4-yl)benzyl)-N-(1-methyl-1H-pyrazol-4-yl)-1H-pyrazolo[3,4-d]pyrimidin-6-amine] | > 7.00
O=C1CCCN1CCCn1cc(Nc2ncc3cnn(Cc4cccc(N5CCOCC5)c4)c3n2)cn1 [Example 30, 1-(3-(4-((1-(3-Morpholinobenzyl)-1H-pyrazolo[3,4-d]pyrimidin-6-yl)amino)-1H-pyrazol-1-yl)propyl)pyrrolidin-2-one] | > 7.00
Fc1cc(N2CCOCC2)c(F)c(Cn2ncc3cnc(Nc4cnn(CC5CCNC5)c4)nc32)c1F (centres unmarked) [Example 94, N-(1-(pyrrolidin-3-ylmethyl)-1H-pyrazol-4-yl)-1-(2,3,6-trifluoro-5-morpholinobenzyl)-1H-pyrazolo[3,4-d]pyrimidin-6-amine] | > 7.00
Cn1cc(Nc2ncc3cnn(Cc4cc(N5CCOCC5)ccc4F)c3n2)cn1 [Example 15, 1-(2-Fluoro-5-morpholinobenzyl)-N-(1-methyl-1H-pyrazol-4-yl)-1H-pyrazolo[3,4-d]pyrimidin-6-amine] | 6.00 to 7.00
Cn1cc(Nc2ncc3cnn(Cc4cccc(-c5cnn(CCO)c5)c4)c3n2)cn1 [Example 121, 2-(4-(3-((6-((1-methyl-1H-pyrazol-4-yl)amino)-1H-pyrazolo[3,4-d]pyrimidin-1-yl)methyl)phenyl)-1H-pyrazol-1-yl)ethanol] | > 7.00
Cn1cc(Nc2ncc3cnn(Cc4cccc(N5CCC6(COC6)C5)c4)c3n2)cn1 [Example 104, 1-(3-(2-oxa-6-azaspiro[3.4]octan-6-yl)benzyl)-N-(1-methyl-1H-pyrazol-4-yl)-1H-pyrazolo[3,4-d]pyrimidin-6-amine] | 6.00 to 7.00
O=C1COCCN1c1cc(F)cc(Cn2ncc3cnc(Nc4cnn(C5CCNCC5)c4)nc32)c1 [Example 102, 4-(3-fluoro-5-((6-((1-(piperidin-4-yl)-1H-pyrazol-4-yl)amino)-1H-pyrazolo[3,4-d]pyrimidin-1-yl)methyl)phenyl)morpholin-3-one] | > 7.00
Cn1cc(Nc2ncc3cnn(Cc4cc(F)cc(N5CCNCC5)c4)c3n2)cn1 [Example 92, 1-(3-fluoro-5-(piperazin-1-yl)benzyl)-N-(1-methyl-1H-pyrazol-4-yl)-1H-pyrazolo[3,4-d]pyrimidin-6-amine] | > 7.00
OCCn1cc(Nc2ncc3cnn(Cc4cccc(N5CCOCC5)c4)c3n2)cn1 [Example 5, 2-(4-((1-(3-Morpholinobenzyl)-1H-pyrazolo[3,4-d]pyrimidin-6-yl)amino)-1H-pyrazol-1-yl)ethanol] | > 7.00
Cn1cc(-c2cccc(Cn3ncc4cnc(Nc5cnn(CCO)c5)nc43)c2)cn1 [Example 122, 2-(4-((1-(3-(1-methyl-1H-pyrazol-4-yl)benzyl)-1H-pyrazolo[3,4-d]pyrimidin-6-yl)amino)-1H-pyrazol-1-yl)ethanol] | > 7.00
Cn1cc(Nc2ncc3cnn(Cc4c(F)c(F)cc(N5CCOCC5)c4F)c3n2)cn1 [Example 17, N-(1-Methyl-1H-pyrazol-4-yl)-1-(2,3,6-trifluoro-5-morpholinobenzyl)-1H-pyrazolo[3,4-d]pyrimidin-6-amine] | > 7.00
OCCn1cc(Nc2ncc3cnn(Cc4cc(F)cc(N5CCNCC5)c4F)c3n2)cn1 [Example 96, 2-(4-((1-(2,5-difluoro-3-(piperazin-1-yl)benzyl)-1H-pyrazolo[3,4-d]pyrimidin-6-yl)amino)-1H-pyrazol-1-yl)ethanol] | > 7.00
